39 compounds from patent publication US11884627B2, “Compounds and compositions for treating conditions associated with LPA receptor activity” (Lhotse Bio, Inc., priority 2022, dated 2024) can be followed below.

A value given as a limit tells only on which side of the number the result lay.

The target of experiment [1] is T1, human LPA1 (Homo sapiens, UniProt Q92633).
T1 construct: expressed in transfected cells; host or cells: CHO-K1
Briefly: In vitro LPA1 functional antagonist assay (calcium mobilization, FLIPR). It is filed as cell-based. The conditions noted are these: CHO-K1 cells overexpressing human LPA1, Oleoyl LPA challenge at EC80. The protocol: In Vitro LPA1 Functional Antagonist Assay
CHO-K1 cells overexpressing human LPA1 were seeded in a total volume of 20 μL into black-walled, clear-bottom. Poly-D-lysine coated 384-well microplates and incubated at 37° C., for the appropriate time prior to testing. Assays were performed in 1× Dye Loading Buffer consisting of 1× Dye, 1× Additive A and 2.5 mM Probenecid in HBSS/20 mM Hepes. Probenicid was prepared fresh. Cells were loaded with dye prior to testing. Media was aspirated from cells and replaced with 20 μL Dye Loading Buffer. Cells were incubated for 30-60 minutes at 37° C. After dye loading, cells were removed from the incubator and 10 μL 3× test compound was added. Cells were incubated for 30 minutes at room temperature in the dark to equilibrate plate temperature followed by Oleoyl LPA challenge at EC80. Compound antagonist activity was measured on a FLIPR Tetra (MSD). Calcium mobilization was monitored for 2 minutes and 10 μL Oleoyl LPA in HBSS/20 mM Hepes was added to the cells 5 seconds into the assay. For LPA EC80 determination, after dye loading, cells were removed from the incubator and 10 μL HBSS/20 mM Hepes was added. 3× vehicle was included in the buffer. Cells were incubated for 30 minutes at room temperature in the dark to equilibrate plate temperature. Intermediate dilution of LPA stocks was performed to generate 4×LPA samples in assay buffer. LPA agonist activity was measured on a FLIPR Tetra (MSD). Calcium mobilization was monitored for 2 minutes and 10 μL 4×LPA sample in HBSS/20 mM Hepes was added to the cells 5 seconds into the assay. Compound activity was analyzed using CBIS data analysis suite (ChemInnovation, CA). Percentage inhibition is calculated using the following formula: % Inhibition=100%×(1−(mean RFU of test sample−mean RFU of vehicle control)/(mean RFU of LPA control−mean RFU of vehicle control)).
Table B1 and Table B2 show the biological activity of compounds in in vitro LPA1 functional antagonist assay. Activity of the tested compounds provided in Table B1 is as follows: +++=IC50<1 μM; ++=IC50 1 μM−10 μM; +=IC50>10 μM.

Experiment [2] has as its target T1, human LPA1. The experiment is described as follows: In vitro LPA1 calcium flux antagonist assay - Bioduro protocol. It is filed as cell-based. As to conditions: CHO-K1 cells overexpressing human LPA1 and G15a, LPA challenge at EC80. A digest of the protocol: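 Calcium mobilization read on FLIPR after EC80 LPA was added to compound-pretreated (30 min) CHO-K1 cells co-expressing human LPA1 and G15a. Cells were starved 4 h and dye-loaded with Fluo-8 AM/2.5 mM probenecid in HBSS-Hepes; inhibition normalized between DMSO and LPA-control RFU.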
A general note: Calcium assays in cells follow changes in intracellular calcium, usually with a dye or a luminescent sensor.

[3] abbreviates: calcium mobilization on FLIPR Tetra, read-out: IC50.
The mark [4] stands for this setting: Table B3, read-out: Activity (IC50 class).

T1 sequence (Q92633 whole entry): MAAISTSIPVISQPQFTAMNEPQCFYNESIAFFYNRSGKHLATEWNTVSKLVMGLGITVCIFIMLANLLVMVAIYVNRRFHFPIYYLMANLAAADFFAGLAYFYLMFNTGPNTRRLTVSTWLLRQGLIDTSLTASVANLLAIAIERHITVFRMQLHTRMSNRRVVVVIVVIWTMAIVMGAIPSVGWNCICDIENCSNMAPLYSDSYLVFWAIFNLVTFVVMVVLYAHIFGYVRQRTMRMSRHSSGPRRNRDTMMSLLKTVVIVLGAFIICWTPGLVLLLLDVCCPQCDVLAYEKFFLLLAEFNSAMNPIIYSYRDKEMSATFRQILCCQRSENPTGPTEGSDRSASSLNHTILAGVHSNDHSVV

As usually defined, the IC50 is the concentration that inhibits the measured activity by half. On to `COc1cc(-c2ccc(NCCC(=O)O)cc2COCc2ccccc2)ccc1C(F)F` [Compound 102], for which the IC50 in experiment [1] (Table B1, read-out: Activity (IC50 class)) is 1000 to 10000 nM; in experiment [1] (Table B2, read-out: IC50), 2490 nM.

On to `CCOc1cc(OC)cc(-c2ccc(NC3(C(=O)O)CCOCC3)cc2COC2CC2)c1F` [Compound 288], for which the values for the IC50 in experiment [2] (setting [3]) and in experiment [2] (setting [4]) were 11.9 nM and under 100 nM, respectively.

As to `COc1cc(OC)cc(-c2ccc(NC3(C(=O)O)CCOCC3)cc2CO[C@H]2CCC[C@H]2NC(C)=O)c1` [Compound 169], the IC50 in experiment [2] (setting [3]) is over 10000 nM; in experiment [2] (setting [4]) it was over 1000 nM.

Regarding `CCOc1cc(OC)cc(-c2ccc(NC3(C(=O)O)CCC(F)(F)CC3)cc2COC2CC2)c1F` [Compound 388], the IC50 in experiment [2] (setting [3]) is 6.2 nM; in experiment [2] (setting [4]), under 100 nM.

For `COc1cc(-c2ccc(NC3(C(=O)O)C[C@@H]3C)cc2COC2Cc3ccccc3C2)cc(OC)c1C` (stereo partly drawn) [Compound 119, (2S)-1-((2-(((2,3-dihydro-1H-inden-2-yl)oxy)methyl)-3′,5′-dimethoxy-4′-methyl-[1,1′-biphenyl]-4-yl)amino)-2-methylcyclopropane-1-carboxylic acid], the IC50 in experiment [2] (setting [3]) was 35.6 nM; in experiment [2] (setting [4]), under 100 nM.

As to `COc1cc(-c2ccc(NC3(C(=O)O)CCOCC3)cc2COC2COc3ccccc32)c(F)c(OC)c1C` (single isomer, unassigned) [Compound 224], the IC50 in experiment [2] (setting [3]) is 158 nM; in experiment [2] (setting [4]) it was 100 to 1000 nM.

In the case of `COc1cc(-c2ccc(NC3(C(=O)O)CCOCC3)cc2COCCC(C)C)c(F)c(OC)c1C` [Compound 351], the figures for the IC50 in experiment [2] (setting [3]) and in experiment [2] (setting [4]) were 4.63 nM and under 100 nM, respectively.

In the case of `CCOc1cncc(-c2ccc(NC3(C(=O)O)CCOCC3)cc2COC2CC3CC3C2)c1C` (stereo not drawn) [Compound 416, 4-{[3-({bicyclo[3.1.0]hexan-3-yloxy}methyl)-4-(5-ethoxy-4-methylpyridin-3-yl)phenyl]amino}oxane-4-carboxylic acid], the IC50 in experiment [2] (setting [3]) was 8.79 nM; in experiment [2] (setting [4]), under 100 nM.

On to `O=C(O)C1(Nc2ccc(-c3cccc(OC4CC4)c3Cl)c(COC3CC3)c2)CCC(F)(F)CC1` [Compound 386], for which the IC50 in experiment [2] (setting [3]) was 3.84 nM; in experiment [2] (setting [4]), under 100 nM.

For `COc1cc(-c2ccc(NC3(C(=O)O)CCC3)cc2COC2CC2)c(F)c(OC)c1C` [Compound 362], the IC50 was 356 nM in experiment [2] (setting [3]) and 100 to 1000 nM in experiment [2] (setting [4]).

In the case of `CCOc1cncc(-c2c(C)cc(NC3(C(=O)O)CCOCC3)cc2COC2CC2)c1C(F)F` [Compound 410], the IC50 was 179 nM in experiment [2] (setting [3]) and 100 to 1000 nM in experiment [2] (setting [4]).

For the compound `COc1cc(-c2ccc(NC3(C(=O)O)CCOCC3)cc2COC2CCCC2)c(OC)c(OC)c1C` [Compound 220], the IC50 in experiment [2] (setting [3]) was 81.6 nM; in experiment [2] (setting [4]), 100 to 1000 nM.

As for `CCCCOCc1cc(NC2(C(=O)O)CCOCC2)ccc1-c1cc(OC)c(C)c(OC)c1F` [Compound 335], the IC50 in experiment [2] (setting [3]) was 5.56 nM; in experiment [2] (setting [4]) it was under 100 nM.

Take `CCOc1c(F)ccc(-c2ccc(NC3(C(=O)O)CCOCC3)cc2COC2CCCC2)c1F` [Compound 266]: the IC50 was 142 nM in experiment [2] (setting [3]) and 100 to 1000 nM in experiment [2] (setting [4]).

As to `COc1cc(-c2ccc(NC3(C(=O)O)CC(F)(F)C3)cc2COC2Cc3ccccc3C2)cc(OC)c1C` [Compound 120], the IC50 in experiment [2] (setting [3]) was 57 nM; in experiment [2] (setting [4]), under 100 nM.

Take `COc1cc(-c2c(Cl)cc(NC3(C(=O)O)CCOCC3)cc2COC2CCCC2)cc(OC)c1C` [Compound 184]: the IC50 in experiment [2] (setting [3]) was 33.2 nM; in experiment [2] (setting [4]), under 100 nM.

Take `O=C(O)C1(Nc2ccc(-c3cccc(OC4CC4)c3)c(COC3CC3)c2)CCOCC1` [Compound 304]: the IC50 in experiment [2] (setting [3]) was 5.64 nM; in experiment [2] (setting [4]), over 1000 nM.

Regarding `COc1cc(-c2ccc(NC3(C(=O)O)CCOCC3)cc2CCC2(C)Oc3ccccc3O2)cc(OC)c1C` [Compound 132, 4-({3′,5′-dimethoxy-4′-methyl-2-[2-(2-methyl-1,3-benzodioxol-2-yl)ethyl]-[1,1′-biphenyl]-4-yl}amino)oxane-4-carboxylic acid], the IC50 in experiment [2] (setting [3]) is 20.1 nM; in experiment [2] (setting [4]) it was under 100 nM.

In the case of `CCOc1c(C)ccc(-c2ccc(NC3(C(=O)O)CC3)cc2COC2CC2)c1C` [Compound 368], the IC50 was 40.7 nM in experiment [2] (setting [3]) and under 100 nM in experiment [2] (setting [4]).

With `O=C(O)C1(Nc2ccc(-c3cccc(OC4CCC4)c3F)c(COC3CC3)c2)CCOCC1` [Compound 291], the IC50 was 173 nM in experiment [2] (setting [3]) and under 100 nM in experiment [2] (setting [4]).

As for `COc1cc(-c2ccc(NC3(C(=O)O)CCOCC3)cc2COC2CCCC2)cc(O)n1` [Compound 218], the IC50 in experiment [2] (setting [3]) was over 10000 nM; in experiment [2] (setting [4]), over 1000 nM.

Consider `COc1cc(-c2ccc(NC3(C(=O)O)CCOCC3)cc2COC2Cc3ccccc3C2)cc(OC)c1C(C)=O` [Compound 123], for which the results for the IC50 in experiment [2] (setting [3]) and in experiment [2] (setting [4]) were 14.8 nM and under 100 nM, respectively.

`COc1cc(-c2ccc(N(C)C3(C(=O)O)CCOCC3)cc2COC2CCCC2)c(F)c(OC)c1C` [Compound 239]: the figures for the IC50 in experiment [2] (setting [3]) and in experiment [2] (setting [4]) were 970 nM and 100 to 1000 nM, respectively.

For the compound `COC(=O)N1CCC(Nc2cc(C)c(-c3cc(C#N)cc(OC)c3)c(COC3CCCC3)c2)(C(=O)O)CC1` [Compound 161], the IC50 in experiment [2] (setting [3]) was 976 nM; in experiment [2] (setting [4]), 100 to 1000 nM.

For the compound `CCOc1cccc(-c2ccc(NC3(C(=O)O)CCOCC3)cc2COC2CC2)c1F` [Compound 306], the IC50 is 165 nM in experiment [2] (setting [3]) and 100 to 1000 nM in experiment [2] (setting [4]).

`COc1cc(-c2ccc(NC3(C(=O)O)CCOCC3)cc2COC2CCCC2)cc(OC)n1` [Compound 152, 4-((3-((cyclopentyloxy)methyl)-4-(2,6-dimethoxypyridin-4-yl)phenyl)amino)tetrahydro-2H-pyran-4-carboxylic acid]: the values for the IC50 in experiment [2] (setting [3]) and in experiment [2] (setting [4]) were 390 nM and 100 to 1000 nM, respectively.

Regarding `COc1cc(-c2ccc(NC3(C(=O)O)CCOCC3)cc2COC2CCCC2)c2c(c1C)OCC2` [Compound 193, 4-((3-((cyclopentyloxy)methyl)-4-(6-methoxy-7-methyl-2,3-dihydrobenzofuran-4-yl)phenyl)amino)tetrahydro-2H-pyran-4-carboxylic acid], the IC50 in experiment [2] (setting [3]) was 31.9 nM; in experiment [2] (setting [4]), under 100 nM.

For `COc1cc(-c2ccc(NC3(C(=O)O)CCOCC3)cc2COC2CCCC2)c(F)c(OC)c1C` [Compound 165], the IC50 in experiment [2] (setting [3]) is 10.9 nM; in experiment [2] (setting [4]), under 100 nM.

For `CCOc1cncc(-c2ccc(NC3(C(=O)O)CCOCC3)cc2COC2CC2)c1C(F)F` [Compound 403], the IC50 in experiment [2] (setting [3]) was 23.1 nM; in experiment [2] (setting [4]), under 100 nM.

Consider `CCc1nccc(-c2ccc(NC3(C(=O)O)CCOCC3)cc2COC2CC2)c1F` [Compound 339], for which the IC50 in experiment [2] (setting [3]) is 85.3 nM; in experiment [2] (setting [4]) it was under 100 nM.

Turning to `COC(=O)N1CCCC(Nc2cc(C)c(-c3cc(OC)cc(OC)c3)c(COC3CCCC3)c2)(C(=O)O)C1` (stereo not drawn) [Compound 210], the IC50 in experiment [2] (setting [3]) is over 10000 nM; in experiment [2] (setting [4]), over 1000 nM.

As to `CCOc1c(C)c(OC)cc(-c2ccc(NC3(C(=O)O)CCOCC3)cc2COC2CC2)c1F` [Compound 312], the figures for the half-maximal inhibitory concentration (IC50) in experiment [2] (setting [3]) and in experiment [2] (setting [4]) were 5.44 nM and under 100 nM, respectively.

Regarding `CCOc1cc(OC)cc(-c2ccc(NC3(C(=O)O)CCCCC3)cc2COC2CC2)c1F` [Compound 357], the values for the 50% inhibitory concentration (IC50) in experiment [2] (setting [3]) and in experiment [2] (setting [4]) were 30.3 nM and under 100 nM, respectively.

As for `COc1cc(-c2ccc(NC3(C(=O)O)CCOCC3)cc2COC2CC2)c(F)c(OC)c1C#N` [Compound 342], the results for the IC50 in experiment [2] (setting [3]) and in experiment [2] (setting [4]) were 19.7 nM and under 100 nM, respectively.

Turning to `CCOc1cccc(-c2ccc(NC3(C(=O)O)CC3)cc2COC2CC2)c1C(F)F` [Compound 359], the IC50 in experiment [2] (setting [3]) was 49.8 nM; in experiment [2] (setting [4]), under 100 nM.

As to `CCCc1nccc(-c2ccc(NC3(C(=O)O)CCOCC3)cc2COC2CC2)c1F` [Compound 393], the IC50 is over 10000 nM in experiment [2] (setting [3]) and over 1000 nM in experiment [2] (setting [4]).

For the compound `COc1cc(OC)c(F)c(-c2ccc(OC3(C(=O)O)CCOCC3)cc2COC2CCCC2)c1` [Compound 222], the IC50 was 167 nM in experiment [2] (setting [3]) and 100 to 1000 nM in experiment [2] (setting [4]).

Regarding `CCOc1c(C)ncc(-c2ccc(NC3(C(=O)O)CCOCC3)cc2COC2CC2)c1C` [Compound 408], the IC50 is 152 nM in experiment [2] (setting [3]) and 100 to 1000 nM in experiment [2] (setting [4]).

On to `CCOc1cc(OC)cc(-c2ccc(NC3(C(=O)O)CC3)cc2COC2CC2)c1F` [Compound 337], for which the figures for the IC50 in experiment [2] (setting [3]) and in experiment [2] (setting [4]) were 315 nM and 100 to 1000 nM, respectively.
